Source: PubChem BioAssay (NCI)
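Following 48 hours of exposure in 96-well plates, responses at five concentrations were used to interpolate endpoints linearly. At the TGI there is no net growth.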

What was measured:
Experiment in all cases: NCI-60 cell line screen, 48 h
XF 498 CNS = test system: XF 498 CNS
U251 CNS = test system: U251 CNS
SK-OV-3 ovarian = test system: SK-OV-3 ovarian
M19-MEL melanoma = test system: M19-MEL melanoma
UACC-62 melanoma = test system: UACC-62 melanoma
UACC-257 melanoma = test system: UACC-257 melanoma
OVCAR-5 ovarian = test system: OVCAR-5 ovarian
SK-MEL-28 melanoma = test system: SK-MEL-28 melanoma
RXF-631 renal = test system: RXF-631 renal
LXFL 529 NSCLC = test system: LXFL 529 NSCLC
OVCAR-4 ovarian = test system: OVCAR-4 ovarian
MOLT-4 leukemia = test system: MOLT-4 leukemia
SF-268 CNS = test system: SF-268 CNS
SW-620 colon = test system: SW-620 colon
NCI-H460 lung = test system: NCI-H460 lung
NCI-H23 lung = test system: NCI-H23 lung
SNB-19 CNS = test system: SNB-19 CNS
HCC-2998 colon = test system: HCC-2998 colon
786-0 renal = test system: 786-0 renal
CAKI-1 renal = test system: CAKI-1 renal
EKVX NSCLC = test system: EKVX NSCLC
MALME-3M melanoma = test system: MALME-3M melanoma
SN12C renal = test system: SN12C renal
OVCAR-8 ovarian = test system: OVCAR-8 ovarian
UO-31 renal = test system: UO-31 renal
A549 NSCLC = test system: A549 NSCLC
SNB-75 CNS = test system: SNB-75 CNS
HOP-62 NSCLC = test system: HOP-62 NSCLC
DMS 114 small cell lung = test system: DMS 114 small cell lung
IGROV1 ovarian = test system: IGROV1 ovarian
KM20L2 colon = test system: KM20L2 colon
HT29 colon = test system: HT29 colon
HL-60(TB) leukemia = test system: HL-60(TB) leukemia
DMS 273 small cell lung = test system: DMS 273 small cell lung
SF-295 CNS = test system: SF-295 CNS
ACHN renal = test system: ACHN renal
HCT-15 colon = test system: HCT-15 colon
RPMI-8226 leukemia = test system: RPMI-8226 leukemia
NCI-H522 lung = test system: NCI-H522 lung
OVCAR-3 ovarian = test system: OVCAR-3 ovarian
NCI-H226 lung = test system: NCI-H226 lung
TK-10 renal = test system: TK-10 renal
COLO 205 colon = test system: COLO 205 colon
KM12 colon = test system: KM12 colon
SK-MEL-2 melanoma = test system: SK-MEL-2 melanoma
A498 renal = test system: A498 renal
CCRF-CEM leukemia = test system: CCRF-CEM leukemia
DLD-1 colon = test system: DLD-1 colon
K-562 leukemia = test system: K-562 leukemia
SK-MEL-5 melanoma = test system: SK-MEL-5 melanoma
HOP-92 NSCLC = test system: HOP-92 NSCLC
M14 melanoma = test system: M14 melanoma
RXF 393 renal = test system: RXF 393 renal
HCT-116 colon = test system: HCT-116 colon
SNB-78 CNS = test system: SNB-78 CNS
LOX IMVI melanoma = test system: LOX IMVI melanoma
HOP-18 NSCLC = test system: HOP-18 NSCLC
SF-539 CNS = test system: SF-539 CNS

Molecule `CC1SC2=NC3=C(c4ccccc4C3=O)C(c3ccc(Cl)cc3)N2C1=O` (stereo unspecified) has a TGI (XF 498 CNS) of over 100 µM, a TGI (U251 CNS) of over 100 µM and a TGI (SK-OV-3 ovarian) of over 100 µM. For the same molecule, the TGI (M19-MEL melanoma) was over 100 µM, the TGI (UACC-62 melanoma) was over 100 µM and the TGI (UACC-257 melanoma) was over 100 µM. It also gave a TGI (OVCAR-5 ovarian) of over 100 µM, a TGI (SK-MEL-28 melanoma) of over 100 µM and a TGI (RXF-631 renal) of over 100 µM. It also gave a TGI (LXFL 529 NSCLC) of over 100 µM, a TGI (OVCAR-4 ovarian) of over 100 µM and a TGI (MOLT-4 leukemia) of over 100 µM. For the same molecule, the TGI (SF-268 CNS) was over 100 µM, the TGI (SW-620 colon) was over 100 µM and the TGI (NCI-H460 lung) was over 100 µM. It also gave a TGI (NCI-H23 lung) of over 100 µM, a TGI (SNB-19 CNS) of over 100 µM and a TGI (HCC-2998 colon) of over 100 µM. It also gave a TGI (786-0 renal) of over 100 µM, a TGI (CAKI-1 renal) of over 100 µM and a TGI (EKVX NSCLC) of over 100 µM. It also gave a TGI (MALME-3M melanoma) of over 100 µM, a TGI (SN12C renal) of over 100 µM and a TGI (OVCAR-8 ovarian) of over 100 µM. It also gave a TGI (UO-31 renal) of over 100 µM, a TGI (A549 NSCLC) of over 100 µM and a TGI (SNB-75 CNS) of over 100 µM. For the same molecule, the TGI (HOP-62 NSCLC) was over 100 µM, the TGI (DMS 114 small cell lung) was over 100 µM and the TGI (IGROV1 ovarian) was over 100 µM. It also gave a TGI (KM20L2 colon) of over 100 µM, a TGI (HT29 colon) of over 100 µM and a TGI (HL-60(TB) leukemia) of over 100 µM. For the same molecule, the TGI (DMS 273 small cell lung) was over 100 µM, the TGI (SF-295 CNS) was over 100 µM and the TGI (ACHN renal) was over 100 µM. It also gave a TGI (HCT-15 colon) of over 100 µM, a TGI (RPMI-8226 leukemia) of over 100 µM and a TGI (NCI-H522 lung) of 87.8 µM. For the same molecule, the TGI (OVCAR-3 ovarian) was over 100 µM, the TGI (NCI-H226 lung) was over 100 µM and the TGI (TK-10 renal) was over 100 µM. It also gave a TGI (COLO 205 colon) of over 100 µM, a TGI (KM12 colon) of over 100 µM and a TGI (SK-MEL-2 melanoma) of over 100 µM. For the same molecule, the TGI (A498 renal) was over 100 µM, the TGI (CCRF-CEM leukemia) was over 100 µM and the TGI (DLD-1 colon) was over 100 µM. The TGI (K-562 leukemia) was over 100 µM, the TGI (SK-MEL-5 melanoma) was over 100 µM and the TGI (HOP-92 NSCLC) was over 100 µM. The TGI (M14 melanoma) was over 100 µM.
`O=C1c2ccccc2C(=O)N1CCN(CCN1C(=O)c2ccccc2C1=O)Cn1cccn1` showed a TGI (XF 498 CNS) of over 100 µM, a TGI (U251 CNS) of over 100 µM and a TGI (SK-OV-3 ovarian) of over 100 µM. It also gave a TGI (M19-MEL melanoma) of over 100 µM, a TGI (UACC-62 melanoma) of 63.2 µM and a TGI (RXF 393 renal) of over 100 µM. The TGI (UACC-257 melanoma) was over 100 µM, the TGI (HCT-116 colon) was 31.6 µM and the TGI (SK-MEL-28 melanoma) was over 100 µM. It also gave a TGI (RXF-631 renal) of over 100 µM, a TGI (LXFL 529 NSCLC) of over 100 µM and a TGI (OVCAR-4 ovarian) of over 100 µM. For the same molecule, the TGI (MOLT-4 leukemia) was over 100 µM, the TGI (SF-268 CNS) was over 100 µM and the TGI (SW-620 colon) was over 100 µM. It also gave a TGI (NCI-H460 lung) of over 100 µM, a TGI (SNB-19 CNS) of over 100 µM and a TGI (HCC-2998 colon) of over 100 µM. The TGI (786-0 renal) was over 100 µM, the TGI (CAKI-1 renal) was over 100 µM and the TGI (EKVX NSCLC) was over 100 µM. The TGI (SN12C renal) was over 100 µM, the TGI (OVCAR-8 ovarian) was over 100 µM and the TGI (UO-31 renal) was over 100 µM. For the same molecule, the TGI (A549 NSCLC) was over 100 µM, the TGI (SNB-75 CNS) was over 100 µM and the TGI (HOP-62 NSCLC) was over 100 µM. The TGI (DMS 114 small cell lung) was 38.3 µM, the TGI (KM20L2 colon) was over 100 µM and the TGI (HL-60(TB) leukemia) was 74.5 µM. The TGI (DMS 273 small cell lung) was over 100 µM, the TGI (SF-295 CNS) was over 100 µM and the TGI (ACHN renal) was over 100 µM. For the same molecule, the TGI (HCT-15 colon) was over 100 µM, the TGI (RPMI-8226 leukemia) was 83.4 µM and the TGI (NCI-H522 lung) was over 100 µM. The TGI (OVCAR-3 ovarian) was over 100 µM, the TGI (SNB-78 CNS) was over 100 µM and the TGI (TK-10 renal) was over 100 µM. The TGI (COLO 205 colon) was over 100 µM, the TGI (KM12 colon) was over 100 µM and the TGI (LOX IMVI melanoma) was over 100 µM. The TGI (SK-MEL-2 melanoma) was over 100 µM, the TGI (A498 renal) was over 100 µM and the TGI (CCRF-CEM leukemia) was over 100 µM. For the same molecule, the TGI (DLD-1 colon) was over 100 µM, the TGI (K-562 leukemia) was over 100 µM and the TGI (SK-MEL-5 melanoma) was over 100 µM. The TGI (HOP-92 NSCLC) was over 100 µM and the TGI (M14 melanoma) was over 100 µM.
For `Cc1cc2c(cc1C)[n+](=O)c(C(=O)C/C(=N/OCCCc1ccccc1)C(=O)Nc1cc(Cl)ccc1Cl)c(C)n2[O-]`, the TGI (XF 498 CNS) was over 100 µM, the TGI (U251 CNS) was over 100 µM and the TGI (SK-OV-3 ovarian) was over 100 µM. It also gave a TGI (M19-MEL melanoma) of over 100 µM, a TGI (UACC-62 melanoma) of over 100 µM and a TGI (RXF 393 renal) of over 100 µM. The TGI (HOP-18 NSCLC) was over 100 µM, the TGI (UACC-257 melanoma) was over 100 µM and the TGI (OVCAR-5 ovarian) was over 100 µM. It also gave a TGI (HCT-116 colon) of over 100 µM, a TGI (SK-MEL-28 melanoma) of over 100 µM and a TGI (RXF-631 renal) of over 100 µM. It also gave a TGI (LXFL 529 NSCLC) of over 100 µM, a TGI (OVCAR-4 ovarian) of over 100 µM and a TGI (MOLT-4 leukemia) of over 100 µM. It also gave a TGI (SF-268 CNS) of over 100 µM, a TGI (SW-620 colon) of over 100 µM and a TGI (NCI-H460 lung) of over 100 µM. For the same molecule, the TGI (NCI-H23 lung) was over 100 µM, the TGI (SNB-19 CNS) was over 100 µM and the TGI (HCC-2998 colon) was over 100 µM. It also gave a TGI (786-0 renal) of over 100 µM, a TGI (CAKI-1 renal) of over 100 µM and a TGI (EKVX NSCLC) of over 100 µM. For the same molecule, the TGI (MALME-3M melanoma) was over 100 µM, the TGI (SN12C renal) was over 100 µM and the TGI (OVCAR-8 ovarian) was over 100 µM. For the same molecule, the TGI (A549 NSCLC) was over 100 µM, the TGI (SNB-75 CNS) was over 100 µM and the TGI (HOP-62 NSCLC) was over 100 µM. It also gave a TGI (IGROV1 ovarian) of over 100 µM, a TGI (KM20L2 colon) of over 100 µM and a TGI (HT29 colon) of over 100 µM. It also gave a TGI (HL-60(TB) leukemia) of over 100 µM, a TGI (DMS 273 small cell lung) of over 100 µM and a TGI (SF-295 CNS) of over 100 µM. For the same molecule, the TGI (ACHN renal) was over 100 µM, the TGI (HCT-15 colon) was over 100 µM and the TGI (NCI-H522 lung) was over 100 µM. The TGI (OVCAR-3 ovarian) was over 100 µM, the TGI (NCI-H226 lung) was over 100 µM and the TGI (SNB-78 CNS) was over 100 µM. For the same molecule, the TGI (TK-10 renal) was over 100 µM, the TGI (SF-539 CNS) was over 100 µM and the TGI (COLO 205 colon) was over 100 µM. The TGI (KM12 colon) was over 100 µM, the TGI (LOX IMVI melanoma) was over 100 µM and the TGI (SK-MEL-2 melanoma) was 86.2 µM. The TGI (A498 renal) was over 100 µM, the TGI (CCRF-CEM leukemia) was over 100 µM and the TGI (DLD-1 colon) was over 100 µM. It also gave a TGI (K-562 leukemia) of over 100 µM, a TGI (SK-MEL-5 melanoma) of over 100 µM and a TGI (M14 melanoma) of over 100 µM.
